# Experimental data reported in ChEMBL document CHEMBL1140352, “Synthesis and structure-activity relationship of novel 6-aryl-1,4-dihydrobenzo[d][1,3]oxazine-2-thiones as progesterone receptor modulators leading to the potent and selective nonsteroidal progesterone receptor agonist tanaproget” (J Med Chem, 2005).
# What was measured:
# [1] = tested on: T47D; assay: Effective concentration against alkaline phosphatase activity in human T47D breast carcinoma cell line; type: functional, cell-based
# [2] = molecular target: T1, Progesterone receptor (Homo sapiens, UniProt P06401); assay: Inhibition of human progesterone receptor
# T1 sequence (P06401 whole entry): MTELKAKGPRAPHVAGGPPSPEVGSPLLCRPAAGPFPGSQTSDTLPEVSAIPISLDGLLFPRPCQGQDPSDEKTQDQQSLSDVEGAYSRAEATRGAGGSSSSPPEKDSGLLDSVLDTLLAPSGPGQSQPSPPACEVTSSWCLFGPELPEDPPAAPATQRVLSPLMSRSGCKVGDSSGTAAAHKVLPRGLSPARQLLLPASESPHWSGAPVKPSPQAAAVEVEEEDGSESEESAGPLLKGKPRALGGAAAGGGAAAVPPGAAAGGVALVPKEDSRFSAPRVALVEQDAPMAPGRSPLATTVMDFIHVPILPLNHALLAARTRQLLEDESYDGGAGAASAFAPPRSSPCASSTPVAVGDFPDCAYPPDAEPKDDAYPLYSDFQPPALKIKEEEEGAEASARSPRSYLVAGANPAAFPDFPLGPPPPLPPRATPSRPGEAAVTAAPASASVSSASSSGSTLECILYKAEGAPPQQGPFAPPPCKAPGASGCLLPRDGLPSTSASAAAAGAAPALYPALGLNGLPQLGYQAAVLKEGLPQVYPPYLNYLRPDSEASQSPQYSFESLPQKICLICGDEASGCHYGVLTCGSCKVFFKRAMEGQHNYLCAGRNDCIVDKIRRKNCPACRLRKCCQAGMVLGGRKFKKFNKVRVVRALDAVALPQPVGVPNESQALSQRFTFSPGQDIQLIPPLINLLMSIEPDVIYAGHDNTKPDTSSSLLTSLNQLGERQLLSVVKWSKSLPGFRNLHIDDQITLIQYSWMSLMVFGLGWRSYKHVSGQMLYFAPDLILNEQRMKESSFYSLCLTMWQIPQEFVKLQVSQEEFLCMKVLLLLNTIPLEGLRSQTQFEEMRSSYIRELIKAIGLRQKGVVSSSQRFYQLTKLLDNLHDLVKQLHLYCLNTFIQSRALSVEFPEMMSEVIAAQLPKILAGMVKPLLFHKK
Structure (SMILES),EC50 [1] [nM],IC50 [2] [nM]
CC(C)n1c(=O)[nH]c2ccc(-c3cccc(Cl)c3)cc21,–,73
CC1(C)OC(=S)Nc2ccc(-c3ccc(C#N)[nH]3)cc21,0.15,–
CN1C(=S)OC(C)(C)c2cc(-c3ccc(C#N)[nH]3)ccc21,21.1,–
CC1Nc2ccc(-c3ccc(F)c(C#N)c3)cc2C(C)(C)O1 (configuration not stated),23,–
CC1(C)OC(S)=Nc2ccc(-c3csc(C#N)c3)cc21,0.4,–
CC1(C)OC(S)=Nc2ccc(-c3coc(C#N)c3)cc21,1.2,–

# Continued, values first:
EC50 [1] [nM],IC50 [2] [nM],Structure (SMILES)
0.15,–,Cn1c(C#N)ccc1-c1ccc2c(c1)C(C)(C)OC(=S)N2 [TANAPROGET]
0.35,–,Cn1c(C#N)ccc1-c1ccc2c(c1)C(C)(c1cccs1)OC(S)=N2 (configuration not stated)
0.1,–,CCC1(CC)OC(S)=Nc2ccc(-c3ccc(C#N)n3C)cc21
0.1,–,CCC1(C)OC(S)=Nc2ccc(-c3ccc(C#N)n3C)cc21 (configuration not stated)
0.5,–,Cn1c(C#N)ccc1-c1ccc2c(c1)C1(CCC1)OC(S)=N2
1.1,–,Cn1c(C#N)ccc1-c1ccc2c(c1)C(C)(C)OC(=O)N2
